# From US7741491B2, “Diphenylamine-substituted salicylthiazole derivatives and related compounds as phosphotyrosine phosphatase 1B (PTB1B) inhibitors for using as blood-sugar decreasing active ingredients for treating diabetes” (Sanofi-Aventis Deutschland GmbH, priority 2004, dated 2010)
# Target: T1, human PTP1B (Homo sapiens, UniProt P18031)
# T1 construct: but without the carboxy-terminal hydrophobic region (corresponding to 1-299 aa); made in house; host or cells: Sf9 insect cells (Spodoptera frugiperda), Bac-to-Bac baculovirus system
# T1 sequence (P18031 1-299): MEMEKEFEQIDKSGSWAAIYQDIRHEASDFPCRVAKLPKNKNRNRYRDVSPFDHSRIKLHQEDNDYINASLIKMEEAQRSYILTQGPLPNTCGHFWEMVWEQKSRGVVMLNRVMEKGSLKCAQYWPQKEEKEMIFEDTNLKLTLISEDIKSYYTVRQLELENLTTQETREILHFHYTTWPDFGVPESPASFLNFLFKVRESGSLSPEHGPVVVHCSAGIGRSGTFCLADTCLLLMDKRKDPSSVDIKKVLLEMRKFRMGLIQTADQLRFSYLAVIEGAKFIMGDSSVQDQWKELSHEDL
# Experiment: PTP Assay PTP1B DiFMUP (enzymatic test for inhibition of a phosphatase)
# Type: biochemical
# Settings: recombinant hPTP1B (aa 1-299, expressed in Sf9 cells); substrate DiFMUP per table head; read-out: IC-50 (μM) PTP Assay PTP1B DiFMUP
smiles,measurement,value
O=C(O)c1cc(-c2csc(Nc3ccc(-c4ccccc4)cc3)n2)ccc1O [Example 17],IC50,0.7 µM
